# Values quoted from earlier work as cited in patent US20120061267A1, “MediTowel Anti-Fungal Wipe” (priority 2010, published 2012).
# Counter-ions that a name gives are not always drawn.
# Experiments:
# [1] = test system: Trichophyton mentagrophytes; conditions: at a low concentration
# [2] = test system: squalene epoxidase; conditions: in the cells of fungi
smiles,measurement,setting,value
CN(C/C=C/C#CC(C)(C)C)Cc1cccc2ccccc12 [Terbinafine hydrochloride],fungicidal effect on sterilizing germinated conidium,[1],fungicidal effect
same,inhibition of squalene epoxidase,[2],selectively inhibits
